Source: paper PMC6895048, “4,5-Disubstituted 1,2,3-triazoles: Effective Inhibition of Indoleamine 2,3-Dioxygenase 1 Enzyme Regulates T cell Activity and Mitigates Tumor Growth” (Scientific Reports, 2019)

Legend:
TDO enzyme = target: T1, TDO enzyme (Homo sapiens, UniProt P48775); assay: HPLC based TDO inhibition assay; assay type: biochemical
T1 construct: 6xHis (N); made in house; host or cells: Escherichia coli BL21 (DE3) (pET 28a vector)
Procedure: (§1) HPLC based IDO1, and TDO inhibition assays were performed according to the earlier reported procedure[19],[27]–[30]. The reaction mixture (250 µL) contained KPB (100 mM, pH 6.5 for IDO1 and 50 mM, pH 8.0 for TDO), sodium ascorbate (20 mM), methylene blue (10 µM), catalase (240 nM, from bovine liver, Sigma), L-Trp (150 µM), purified enzyme (40 nM for IDO1 and 25 nM for TDO), DMSO (0.05%, v/v), Triton-X 100 (0.01%, v/v) and inhibitors. The concentration of the compound was varied from 100 µM to 32 nM by serial dilution. The mixture was incubated at 37 °C for 1 hour in the absence and presence of the synthesized compounds. The reaction was then quenched using 50 µL of 30% (w/v) trichloroacetic acid and incubated at 65 °C for additional 15 minutes to allow complete hydrolysis of N-formylkynurenine to kynurenine. After that, the mixture was centrifuged at 10,000 rpm for 10 minutes, and 100 µL of clear solution was transferred to another tube for HPLC analysis. Then, 20 µL of the reaction mixture was then injected through Ascentis® express C18, 2.7 µm HPLC column with a flow rate of 0.5 mL/minute of the mobile phase containing 50% sodium citrate buffer (40 mM, pH 2.25) and 50% methanol (v/v) with 400 µM SDS. The area under the curve at 365 nm chromatogram corresponding to the kynurenine formation was recorded, and % of inhibition was calculated using standard curve prepared with pure kynurenine (from Sigma) under similar experimental conditions.

[1] = target: T2, purified human IDO1 enzyme (Homo sapiens, UniProt P14902); assay: IDO1 inhibition assay by the spectrometric method (pDMAB); assay type: biochemical; settings: for IC50: purified human IDO1, spectrophotometric, mean of three independent assays, read-out: hIDO1 IC50; for fold stronger IDO1 inhibitory activity than 1a: in comparison with lead compound 1a
T2 construct: made in house; host or cells: Escherichia coli M15 (pQE30 vector with pREP4 plasmid)
Procedure: Both IDO1 and TDO inhibition assays were performed according to the reported procedures[26]–[30],[50],[51]. […] In the assay system, the minimum and maximum amount of DMSO was 0.02% and 2%, respectively. […] The concentration of the inhibitors was varied from 100 µM to 32 nM by serial dilution technique. Then, the reaction was quenched with 100 µL of 30% (w/v) trichloroacetic acid and was incubated for further 15 minutes at 65 °C. After that, 2% (w/v) pDMAB was used to quantify the amount of kynurenine formation. The absorbance of the reaction mixture was recorded by UV-Vis spectrophotometer at 480 nm.

IDO1 [2] = target: T3, IDO1 (Homo sapiens, UniProt P14902); assay: Kynurenine assay by HPLC analysis, IDO1; assay type: biochemical; parameters: made in house; host or cells: Escherichia coli M15 (pQE30 vector with pREP4 plasmid); settings: for IC50: HPLC based IDO1 inhibition assay; for inhibition at 0.032 µM / inhibition at 0.16 µM / inhibition at 0.8 µM / inhibition at 4 µM / inhibition at 20 µM / inhibition at 100 µM / % Of inhibition for IDO1 enzyme: HPLC
Procedure: as §1

[3] = target: T4, purified human TDO enzyme (Homo sapiens, UniProt P48775); assay: TDO inhibition assay by the spectrometric method; assay type: biochemical; settings: spectrophotometric
T4 construct: 6xHis (N); made in house; host or cells: Escherichia coli BL21 (DE3) (pET 28a vector)
Procedure: Both IDO1 and TDO inhibition assays were performed according to the reported procedures[26]–[30],[50],[51]. The solubility of the compounds in water was either moderate or poor. […] In the assay system, the minimum and maximum amount of DMSO was 0.02% and 2%, respectively. The standard reaction mixture (500 μL) containing KPB (100 mM, pH 6.5 for IDO1 enzyme and 50 mM, pH 8.0 for TDO enzyme), sodium ascorbate (20 mM), methylene blue (10 µM), catalase (240 nM, from bovine liver), L-Trp (150 µM), purified enzyme (40 nM for IDO1 and 25 nM for TDO), DMSO (0.05%, v/v), Triton-X 100 (0.01%, v/v) and inhibitors was incubated at 37 °C for 1 hour. The concentration of the inhibitors was varied from 100 µM to 32 nM by serial dilution technique. Then, the reaction was quenched with 100 µL of 30% (w/v) trichloroacetic acid and was incubated for further 15 minutes at 65 °C. After that, 2% (w/v) pDMAB was used to quantify the amount of kynurenine formation. The absorbance of the reaction mixture was recorded by UV-Vis spectrophotometer at 480 nm. The Km = 59.76 µM and Kcat = 6.18 sec^−1.

IDO1 [4] = target: T3, IDO1; assay: Cellular IDO1 activity assay in IFN-γ induced MDA-MB-231 cells; assay type: cell-based; parameters: induce the expression of the native IDO1 enzyme from its mRNA in the MDA-MB-231 cells; endogenous in cells; host or cells: MDA-MB-231 cells induced with human IFN-γ (50 ng/mL); settings: IDO1 expression induced by human IFN-γ (50 ng/mL); mean of three
Procedure: The cellular enzyme activity assay was performed according to the reported procedure with minor modifications[19],[27]–[30],[33],[54]. Briefly, MDA-MB-231 breast cancer cells were selected for this assay because of the presence of IDO1 mRNA in this cell line. First, cells were grown in DMEM/F12 complete media overnight. Then different concentration of human interferon-gamma (IFN-γ) (from 5–1000 ng/mL) was added to it and incubated for 48 hours. This treatment is reported to allow over-expression of IDO1 enzyme in MDA-MB-231 cells. […] Sterile cell-culture grade PBS was used to wash the cells by centrifugation technique. Then, the pellet was lysed in 10 mM HEPES buffer by passing through a sterile syringe. The lysate was used for standard IDO1 assay as mentioned earlier. The relative amount of N-formylkynurenine generated in the presence of the different concentration of IFN-γ was used to optimize the required concentration of IFN-γ for the IDO1 inhibition assay. […] Cells stimulated with IFN-γ alone were used as negative control, while cells stimulated with L-Trp without compound served as positive control. The cells were washed with sterile cell culture grade PBS and lysed in 10 mM HEPES buffer by sterile syringe. The lysate was used for standard IDO1 assay, as mentioned earlier, and the extent of IDO1 enzyme inhibition was determined for the selected compounds.

IDO1 [5] = settings: cited from earlier work
[6] = cited from earlier work
IDO1 [7] = settings: cited from earlier work; remark: listed apart in the source

T3 sequence (P14902 whole entry): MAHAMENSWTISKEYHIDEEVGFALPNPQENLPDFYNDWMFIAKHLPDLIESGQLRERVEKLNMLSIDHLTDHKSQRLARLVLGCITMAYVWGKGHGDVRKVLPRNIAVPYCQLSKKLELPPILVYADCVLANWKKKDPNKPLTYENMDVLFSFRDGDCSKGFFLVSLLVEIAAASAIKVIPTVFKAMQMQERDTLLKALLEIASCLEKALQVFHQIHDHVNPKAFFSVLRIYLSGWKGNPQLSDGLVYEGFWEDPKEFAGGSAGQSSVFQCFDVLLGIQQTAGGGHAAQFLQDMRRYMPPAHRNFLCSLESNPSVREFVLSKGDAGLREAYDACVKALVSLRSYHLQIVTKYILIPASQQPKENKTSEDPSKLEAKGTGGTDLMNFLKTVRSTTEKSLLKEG
T2 sequence (P14902 whole entry): as above
T4 sequence (P48775 whole entry): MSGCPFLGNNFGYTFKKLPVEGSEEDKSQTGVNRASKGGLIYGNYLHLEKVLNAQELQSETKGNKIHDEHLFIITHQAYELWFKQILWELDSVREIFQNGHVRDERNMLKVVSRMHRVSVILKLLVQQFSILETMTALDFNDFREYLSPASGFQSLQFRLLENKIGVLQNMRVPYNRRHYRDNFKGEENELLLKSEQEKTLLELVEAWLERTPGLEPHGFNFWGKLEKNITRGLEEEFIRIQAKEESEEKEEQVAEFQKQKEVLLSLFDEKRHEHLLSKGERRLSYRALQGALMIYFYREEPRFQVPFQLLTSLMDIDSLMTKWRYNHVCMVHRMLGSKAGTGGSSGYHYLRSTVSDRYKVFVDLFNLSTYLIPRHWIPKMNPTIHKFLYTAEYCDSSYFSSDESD
T1 sequence (P48775 whole entry): as above

Row | SMILES | inhibition at 0.032 µM (TDO enzyme; 32 nM) | inhibition at 0.16 µM (TDO enzyme; 160 nM) | inhibition at 0.8 µM (TDO enzyme; 800 nM) | inhibition at 4 µM (TDO enzyme; 4 µM) | inhibition at 20 µM (TDO enzyme; 20 µM) | inhibition at 100 µM (TDO enzyme; 100 µM) | IC50 [1] | IC50 (IDO1 [2]) | inhibition at 0.032 µM (IDO1 [2]; 32 nM) | inhibition at 0.16 µM (IDO1 [2]; 160 nM) | inhibition at 0.8 µM (IDO1 [2]; 800 nM) | inhibition at 4 µM (IDO1 [2]; 4 µM) | inhibition at 20 µM (IDO1 [2]; 20 µM) | inhibition at 100 µM (IDO1 [2]; 100 µM) | inhibition at 0.032 µM ([3]; 32 nM) | inhibition at 0.16 µM ([3]; 160 nM) | inhibition at 0.8 µM ([3]; 800 nM) | inhibition at 4 µM ([3]; 4 µM) | inhibition at 20 µM ([3]; 20 µM) | EC50 (IDO1 [4]) | other results
1 | NS(=O)(=O)NCCNC(=O)c1n[nH]nc1-c1ccc(Cl)c(Cl)c1 [Compound 4l, 5-(3,4-dichlorophenyl)-N-(2-(sulfamoylamino)ethyl)-2H-1,2,3-triazole-4-carboxamide] | 14% | 15% | 22% | 29% | 38% | 55% | 93 ± 9 nM | 98 ± 7 nM | 33% | 57% | 65% | 88% | 93% | 94% | 3% | 10% | 11% | 19% | 25% | 83 ± 5 nM | inhibition at 4 µM ([1]; 4 μM compound): 71 to 86%; inhibition at 100 µM ([1]; 100 μM compound): 82 to 93%; inhibition at 100 µM ([3]; 100 µM): 26%
2 | CCOC(=O)c1n[nH]nc1-c1ccc(Cl)c(Cl)c1 [Compound 2j] |  |  |  |  |  |  | 163 ± 25 nM | 257 ± 9 nM |  |  |  |  |  |  |  |  |  |  |  | 160 ± 7 nM | % Of inhibition for TDO enzyme (TDO enzyme; 32 nM): 1%; % Of inhibition for TDO enzyme (TDO enzyme; 160 nM): 35%; % Of inhibition for TDO enzyme (TDO enzyme; 800 nM): 36%; % Of inhibition for TDO enzyme (TDO enzyme; 4 µM): 49%; % Of inhibition for TDO enzyme (TDO enzyme; 20 µM): 41%; % Of inhibition for TDO enzyme (TDO enzyme; 100 µM): 43%; % Of inhibition for IDO1 enzyme (IDO1 [2]; 32 nM): 24%; % Of inhibition for IDO1 enzyme (IDO1 [2]; 160 nM): 31%; % Of inhibition for IDO1 enzyme (IDO1 [2]; 800 nM): 52%; % Of inhibition for IDO1 enzyme (IDO1 [2]; 4 µM): 65%; % Of inhibition for IDO1 enzyme (IDO1 [2]; 20 µM): 77%; % Of inhibition for IDO1 enzyme (IDO1 [2]; 100 µM): 77%; % of Enzyme inhibition (TDO) ([3]; 32 nM): 8%; % of Enzyme inhibition (TDO) ([3]; 160 nM): 12%; % of Enzyme inhibition (TDO) ([3]; 800 nM): 25%; % of Enzyme inhibition (TDO) ([3]; 4 µM): 30%; % of Enzyme inhibition (TDO) ([3]; 20 µM): 44%; % of Enzyme inhibition (TDO) ([3]; 100 µM): 53%
3 | Oc1ccc(Cl)cc1-c1cnn[nH]1 [MMG-0358, 4-chloro-2-(1H-1,2,3-triazol-5-yl)phenol] |  |  |  |  |  |  |  |  |  |  |  |  |  |  |  |  |  |  |  |  | IDO1 inhibitory activities, cellular assay (IDO1 [5]): nanomolar-level; cytotoxicity [6]: low cytotoxicity; IDO1 inhibitory activities, enzymatic assay (IDO1 [7]): nanomolar-level
4 | NC(=O)c1n[nH]nc1-c1ccccc1 [Compound 3a, 5-phenyl-2H-1,2,3-triazole-4-carboxamide] | 3% | 4% | 17% | 22% | 25% | 30% | 8541 ± 84 nM | 1190 ± 39 nM | 11% | 31% | 36% | 63% | 79% | 80% | 5% | 7% | 19% | 23% | 29% | 1300 ± 68 nM | fold stronger IDO1 inhibitory activity than 1a [1]: 10 fold; inhibition at 100 µM ([3]; 100 µM): 42%
5 | CCc1ccccc1Nc1cnn[nH]1 [N-(2-Ethylphenyl)-1H-1,2,3-triazol-5-amine] |  |  |  |  |  |  |  |  |  |  |  |  |  |  |  |  |  |  |  |  | cellular IDO1 inhibitory activities (IDO1 [5]): nanomolar-level
6 | CCOC(=O)c1n[nH]nc1-c1ccccc1 [Compound 2a, ethyl 5-phenyl-2H-1,2,3-triazole-4-carboxylate] | 9% | 39% | 49% | 68% | 68% | 73% | 14400 ± 3360 nM | 2790 ± 66 nM | 26% | 31% | 35% | 61% | 76% | 81% | 8% | 17% | 19% | 23% | 27% | 3260 ± 45 nM | fold stronger IDO1 inhibitory activity than 1a [1]: 6 fold; inhibition at 100 µM ([3]; 100 µM): 34%
